ChEMBL document CHEMBL3885881, “DrugMatrix”

Species: Rattus norvegicus
Assay: DrugMatrix - Regimen: Daily Repeat
Format: toxicity, organism-based, Sprague-Dawley
Parameters: regimen Daily Repeat, gender Male, age 6-8 weeks
Settings: in vivo, po, route oral GAVAGE, vehicle .5 % CMC; for ABSOLUTE BASOPHIL / ABSOLUTE EOSINOPHIL / ABSOLUTE LYMPHOCYTE / ABSOLUTE MONOCYTE / ABSOLUTE SEGMENTED NEUTROPHIL / BASOPHIL / EOSINOPHIL / ERYTHROCYTE COUNT / HEMATOCRIT / HEMOGLOBIN / LEUKOCYTE COUNT / LYMPHOCYTE / MEAN CORPUSCULAR HEMOGLOBIN / MEAN CORPUSCULAR HEMOGLOBIN CONCENTRATION / MEAN CORPUSCULAR VOLUME / MONOCYTE / NEUTROPHIL / NUCLEATED RED BLOOD CELLS / PLATELET COUNT: tissue Blood; for ALANINE AMINOTRANSFERASE / ALBUMIN / ALKALINE PHOSPHATASE / ASPARTATE AMINOTRANSFERASE / BLOOD UREA NITROGEN / CARBON DIOXIDE / CHLORIDE / CHOLESTEROL / CREATINE PHOSPHOKINASE / CREATININE / GLUCOSE / LACTATE DEHYDROGENASE / LIPASE / PHOSPHORUS / POTASSIUM / SODIUM / TOTAL BILIRUBIN / TOTAL PROTEIN / URIC ACID: tissue Plasma
[1] = 0 mg/kg, 72 h, dose level Control, time 3 day
[2] = 0 mg/kg, 120 h, dose level Control, time 5 day
[3] = 10 mg/kg, 72 h, dose level Low, time 3 day

Question: With `CCOC(=O)[C@H](CCc1ccccc1)N[C@@H](C)C(=O)N1Cc2ccccc2C[C@H]1C(=O)O` as the molecule, how does the “ABSOLUTE BASOPHIL” value [1] read?
Answer: Its value is 0 CELLS/uL.

Question: What about the “ABSOLUTE EOSINOPHIL” value [1] of the same molecule?
Answer: Its value is 0 CELLS/uL.

Question: And the “ABSOLUTE LYMPHOCYTE” value [1]?
Answer: The value was 12191.17 CELLS/uL.

Question: What about the “ABSOLUTE MONOCYTE” value [1] of the same molecule?
Answer: The value was 183.17 CELLS/uL.

Question: What about the “ABSOLUTE SEGMENTED NEUTROPHIL” value [1] of the same molecule?
Answer: The value was 1192.33 CELLS/uL.

Question: And the BASOPHIL [1]?
Answer: The BASOPHIL was 0%.

Question: And the EOSINOPHIL [1]?
Answer: The EOSINOPHIL was 0%.

Question: What about the “ERYTHROCYTE COUNT” value [1] of the same molecule?
Answer: The value was 5.51 x10E6/uL.

Question: What about the HEMATOCRIT [1] of the same molecule?
Answer: The HEMATOCRIT was 35.45%.

Question: What about the HEMOGLOBIN [1] of the same molecule?
Answer: Its HEMOGLOBIN is 13.82 G/DL.

Question: What about the “LEUKOCYTE COUNT” value [1] of the same molecule?
Answer: The value was 13.57 x10E3/uL.

Question: And the LYMPHOCYTE [1]?
Answer: Its LYMPHOCYTE is 89.83%.

Question: And the “MEAN CORPUSCULAR HEMOGLOBIN” value [1]?
Answer: Its value is 25.1 pg.

Question: What about the “MEAN CORPUSCULAR HEMOGLOBIN CONCENTRATION” value [1] of the same molecule?
Answer: The value was 38.98 G/DL.

Question: And the “MEAN CORPUSCULAR VOLUME” value [1]?
Answer: The value was 64.42 fL.

Question: And the MONOCYTE [1]?
Answer: The MONOCYTE was 1.33%.

Question: What about the NEUTROPHIL [1] of the same molecule?
Answer: Its NEUTROPHIL is 8.83%.

Question: And the “NUCLEATED RED BLOOD CELLS” value [1]?
Answer: Its value is 0 /100WBC.

Question: What about the “PLATELET COUNT” value [1] of the same molecule?
Answer: Its value is 1118.17 x10E3/uL.

Question: What about the “ALANINE AMINOTRANSFERASE” value [1] of the same molecule?
Answer: Its value is 55 u/L.

Question: What about the ALBUMIN [1] of the same molecule?
Answer: The ALBUMIN was 4.15 G/DL.

Question: And the “ALKALINE PHOSPHATASE” value [1]?
Answer: The value was 449.5 u/L.

Question: What about the “ASPARTATE AMINOTRANSFERASE” value [1] of the same molecule?
Answer: The value was 112.83 u/L.

Question: What about the “BLOOD UREA NITROGEN” value [1] of the same molecule?
Answer: The value was 17.33 mg/dL.

Question: What about the “CARBON DIOXIDE” value [1] of the same molecule?
Answer: The value was 29.5 mmol/L.

Question: What about the CHLORIDE [1] of the same molecule?
Answer: The CHLORIDE was 101 MEQ/L.

Question: And the CHOLESTEROL [1]?
Answer: Its CHOLESTEROL is 70 mg/dL.

Question: And the “CREATINE PHOSPHOKINASE” value [1]?
Answer: The value was 1325.83 u/L.

Question: And the CREATININE [1]?
Answer: Its CREATININE is 0.18 mg/dL.

Question: What about the GLUCOSE [1] of the same molecule?
Answer: Its GLUCOSE is 171.5 mg/dL.

Question: What about the “LACTATE DEHYDROGENASE” value [1] of the same molecule?
Answer: Its value is 386 u/L.

Question: And the LIPASE [1]?
Answer: Its LIPASE is 10 u/L.

Question: What about the PHOSPHORUS [1] of the same molecule?
Answer: The PHOSPHORUS was 11.57 mg/dL.

Question: What about the POTASSIUM [1] of the same molecule?
Answer: The POTASSIUM was 6.21 MEQ/L.

Question: What about the SODIUM [1] of the same molecule?
Answer: Its SODIUM is 141.65 MEQ/L.

Question: And the “TOTAL BILIRUBIN” value [1]?
Answer: The value was 0.15 mg/dL.

Question: What about the “TOTAL PROTEIN” value [1] of the same molecule?
Answer: The value was 5.75 G/DL.

Question: And the “URIC ACID” value [1]?
Answer: Its value is 1.28 mg/dL.

Question: And the “ABSOLUTE BASOPHIL” value [2]?
Answer: Its value is 0 CELLS/uL.

Question: And the “ABSOLUTE EOSINOPHIL” value [2]?
Answer: The value was 138.17 CELLS/uL.

Question: And the “ABSOLUTE LYMPHOCYTE” value [2]?
Answer: The value was 13283.17 CELLS/uL.

Question: What about the “ABSOLUTE MONOCYTE” value [2] of the same molecule?
Answer: Its value is 303.83 CELLS/uL.

Question: What about the “ABSOLUTE SEGMENTED NEUTROPHIL” value [2] of the same molecule?
Answer: The value was 1308.17 CELLS/uL.

Question: And the BASOPHIL [2]?
Answer: The BASOPHIL was 0%.

Question: What about the EOSINOPHIL [2] of the same molecule?
Answer: The EOSINOPHIL was 1%.

Question: And the “ERYTHROCYTE COUNT” value [2]?
Answer: Its value is 5.32 x10E6/uL.

Question: What about the HEMATOCRIT [2] of the same molecule?
Answer: Its HEMATOCRIT is 33.8%.

Question: And the HEMOGLOBIN [2]?
Answer: Its HEMOGLOBIN is 13.63 G/DL.

Question: And the “LEUKOCYTE COUNT” value [2]?
Answer: Its value is 15.03 x10E3/uL.

Question: And the LYMPHOCYTE [2]?
Answer: The LYMPHOCYTE was 88.33%.

Question: And the “MEAN CORPUSCULAR HEMOGLOBIN” value [2]?
Answer: Its value is 25.68 pg.

Question: And the “MEAN CORPUSCULAR HEMOGLOBIN CONCENTRATION” value [2]?
Answer: Its value is 40.35 G/DL.

Question: What about the “MEAN CORPUSCULAR VOLUME” value [2] of the same molecule?
Answer: Its value is 63.67 fL.

Question: And the MONOCYTE [2]?
Answer: The MONOCYTE was 1.83%.

Question: What about the NEUTROPHIL [2] of the same molecule?
Answer: The NEUTROPHIL was 8.83%.

Question: And the “NUCLEATED RED BLOOD CELLS” value [2]?
Answer: Its value is 0 /100WBC.

Question: What about the “PLATELET COUNT” value [2] of the same molecule?
Answer: The value was 1097.5 x10E3/uL.

Question: And the “ALANINE AMINOTRANSFERASE” value [2]?
Answer: Its value is 54.5 u/L.

Question: And the ALBUMIN [2]?
Answer: Its ALBUMIN is 4.27 G/DL.

Question: And the “ALKALINE PHOSPHATASE” value [2]?
Answer: The value was 337 u/L.

Question: And the “ASPARTATE AMINOTRANSFERASE” value [2]?
Answer: The value was 94.67 u/L.

Question: And the “BLOOD UREA NITROGEN” value [2]?
Answer: The value was 17 mg/dL.

Question: What about the “CARBON DIOXIDE” value [2] of the same molecule?
Answer: Its value is 28.33 mmol/L.

Question: And the CHLORIDE [2]?
Answer: Its CHLORIDE is 101.5 MEQ/L.

Question: What about the CHOLESTEROL [2] of the same molecule?
Answer: The CHOLESTEROL was 71.33 mg/dL.

Question: And the “CREATINE PHOSPHOKINASE” value [2]?
Answer: Its value is 628.17 u/L.

Question: And the CREATININE [2]?
Answer: The CREATININE was 0.19 mg/dL.

Question: And the GLUCOSE [2]?
Answer: The GLUCOSE was 177.83 mg/dL.

Question: What about the “LACTATE DEHYDROGENASE” value [2] of the same molecule?
Answer: Its value is 500.5 u/L.

Question: What about the LIPASE [2] of the same molecule?
Answer: The LIPASE was 9.5 u/L.

Question: What about the PHOSPHORUS [2] of the same molecule?
Answer: The PHOSPHORUS was 12.3 mg/dL.

Question: What about the POTASSIUM [2] of the same molecule?
Answer: Its POTASSIUM is 5.63 MEQ/L.

Question: And the SODIUM [2]?
Answer: Its SODIUM is 143.03 MEQ/L.

Question: And the “TOTAL BILIRUBIN” value [2]?
Answer: Its value is 0.2 mg/dL.

Question: And the “TOTAL PROTEIN” value [2]?
Answer: Its value is 6.02 G/DL.

Question: And the “URIC ACID” value [2]?
Answer: The value was 1.5 mg/dL.

Question: And the “ABSOLUTE BASOPHIL” value [3]?
Answer: Its value is 0 CELLS/uL.

Question: What about the “ABSOLUTE EOSINOPHIL” value [3] of the same molecule?
Answer: The value was 39 CELLS/uL.

Question: And the “ABSOLUTE LYMPHOCYTE” value [3]?
Answer: Its value is 11213 CELLS/uL.

Question: And the “ABSOLUTE MONOCYTE” value [3]?
Answer: The value was 0 CELLS/uL.

Question: And the “ABSOLUTE SEGMENTED NEUTROPHIL” value [3]?
Answer: Its value is 1148 CELLS/uL.

Question: And the BASOPHIL [3]?
Answer: Its BASOPHIL is 0%.

Question: What about the EOSINOPHIL [3] of the same molecule?
Answer: The EOSINOPHIL was 0.33%.

Question: What about the “ERYTHROCYTE COUNT” value [3] of the same molecule?
Answer: The value was 5.3 x10E6/uL.

Question: What about the HEMATOCRIT [3] of the same molecule?
Answer: Its HEMATOCRIT is 34.07%.

Question: What about the HEMOGLOBIN [3] of the same molecule?
Answer: Its HEMOGLOBIN is 13.93 G/DL.

Question: And the “LEUKOCYTE COUNT” value [3]?
Answer: Its value is 12.4 x10E3/uL.

Question: And the LYMPHOCYTE [3]?
Answer: The LYMPHOCYTE was 90.33%.

Question: And the “MEAN CORPUSCULAR HEMOGLOBIN” value [3]?
Answer: Its value is 26.33 pg.

Question: What about the “MEAN CORPUSCULAR HEMOGLOBIN CONCENTRATION” value [3] of the same molecule?
Answer: The value was 40.9 G/DL.

Question: What about the “MEAN CORPUSCULAR VOLUME” value [3] of the same molecule?
Answer: Its value is 64.37 fL.

Question: What about the MONOCYTE [3] of the same molecule?
Answer: Its MONOCYTE is 0%.

Question: And the NEUTROPHIL [3]?
Answer: The NEUTROPHIL was 9.33%.

Question: What about the “NUCLEATED RED BLOOD CELLS” value [3] of the same molecule?
Answer: The value was 0 /100WBC.

Question: And the “PLATELET COUNT” value [3]?
Answer: The value was 1446.33 x10E3/uL.
